Source: patent US20250161244A1 (UNION HOSPITAL, TONGJI MEDICAL COLLEGE, HUAZHONG UNI. OF …, priority 2023, published 2025)

System: LX-2 cells (human HSCs)
Assay: CCK8 experiment, proliferation of LX-2 cells
Type: cell-based
Details: 48 h incubation, CCK-8; tested at 2.5 μM and 5 μM

CC1=C(/C=C/C(C)=C/C=C/C(C)=C/CO)C(C)(C)CCC1 [VA, vitamin A]
inhibitory effect on LX-2 cells proliferation: no inhibitory effect
